According to ChEMBL document CHEMBL1781917, “Computational aqueous solubility prediction for drug-like compounds in congeneric series” (Eur J Med Chem, 2008):

Tests used:
Assay type in all cases: physicochemical
[1] = Intrinsic solubility, log 1/S0 of the compound
[2] = Lipophilicity, log P of the compound; conditions: octanol/water
[3] = Dissociation constant, pKa of the compound

| Compound | log1/S0 [1] | logP [2] | pKa [3] |
| --- | --- | --- | --- |
| CC(C)C(NC(=O)Cn1c(-c2ccccc2)cc2c(=O)n(CC(N)=O)c(=O)[nH]c2c1=O)C(=O)C(F)(F)F (stereo unspecified) | 3.6 |  |  |
| Cc1ccnc(NS(=O)(=O)c2ccc(N)cc2)n1 [SULFAMERAZINE] |  | 0.13 |  |
| CNC(=O)Cn1c(=O)[nH]c2c(=O)n(CC(=O)NC(C(=O)C(F)(F)F)C(C)C)c(-c3ccccc3)cc2c1=O (stereo unspecified) | 3.73 |  |  |
| Nc1ccc(S(=O)(=O)Nc2ncccn2)cc1 [SULFADIAZINE] | 3.67 | -0.13 |  |
| CN1CCN=C(c2ccccc2)c2cc(Cl)ccc21 [MEDAZEPAM] | 4.41 |  |  |
| CC(C)C(NC(=O)Cn1c(-c2ccccc2)cc2c(=O)n(C)c(=O)[nH]c2c1=O)C(=O)C(F)(F)F (stereo unspecified) | 4.03 |  |  |
| COc1cnc(NS(=O)(=O)c2ccc(N)cc2)nc1 | 3.63 | 0.46 |  |
| COc1cc(NS(=O)(=O)c2ccc(N)cc2)nc(C)n1 [SULFAMETOMIDINE] | 3.05 |  |  |
| Cc1noc(NS(=O)(=O)c2ccc(N)cc2)c1C [SULFISOXAZOLE] | 3.45 | 1.15 |  |
| COc1ccc(NS(=O)(=O)c2ccc(N)cc2)nn1 [SULFAMETHOXYPYRIDAZINE] | 2.55 | 0.4 |  |
| COc1ncnc(NS(=O)(=O)c2ccc(N)cc2)c1OC [SULFADOXINE] | 3.59 | 1.06 |  |
| Cc1cc(NS(=O)(=O)c2ccc(N)cc2)nc(C)n1 [SULFISOMIDINE] | 2.78 | -0.3 |  |
| O=C1CN=C(c2ccccc2Cl)c2cc(Cl)ccc2N1 [DELORAZEPAM] | 3.97 |  |  |
| CN1C(=O)CN=C(c2ccccc2)c2cc(Cl)ccc21 [DIAZEPAM] | 3.83 |  |  |
| CCOCCn1c(=O)[nH]c2c(=O)n(CC(=O)NC(C(=O)C(F)(F)F)C(C)C)c(-c3ccccc3)cc2c1=O (stereo unspecified) | 4.83 |  |  |
| Cc1cc(C)nc(NS(=O)(=O)c2ccc(N)cc2)n1 [SULFAMETHAZINE] |  | 0.89 |  |
| COC(OC)n1c(=O)[nH]c2c(=O)n(CC(=O)NC(C(=O)C(F)(F)F)C(C)C)c(-c3ccccc3)cc2c1=O (stereo unspecified) | 3.11 |  |  |
| COc1ccc(Cn2c(=O)[nH]c3c(=O)n(CC(=O)NC(C(=O)C(F)(F)F)C(C)C)c(-c4ccccc4)cc3c2=O)cc1 (stereo unspecified) | 3.4 |  |  |
| CC(C)C(NC(=O)Cn1c(-c2ccccc2)cc2c(=O)n(CCN3CCOCC3)c(=O)[nH]c2c1=O)C(=O)C(F)(F)F (stereo unspecified) | 3.44 |  | 7.04 |
